20 molecules from patent publication US12577206B2 (BRISTOL-MYERS SQUIBB COMPANY, priority 2020, dated 2026) can be followed below.

Where only a bound is given, the exact number is not on record here.

The target in assay [1] is T1, human FPR2 (Homo sapiens, UniProt P25090).
T1 sequence (P25090 1-351): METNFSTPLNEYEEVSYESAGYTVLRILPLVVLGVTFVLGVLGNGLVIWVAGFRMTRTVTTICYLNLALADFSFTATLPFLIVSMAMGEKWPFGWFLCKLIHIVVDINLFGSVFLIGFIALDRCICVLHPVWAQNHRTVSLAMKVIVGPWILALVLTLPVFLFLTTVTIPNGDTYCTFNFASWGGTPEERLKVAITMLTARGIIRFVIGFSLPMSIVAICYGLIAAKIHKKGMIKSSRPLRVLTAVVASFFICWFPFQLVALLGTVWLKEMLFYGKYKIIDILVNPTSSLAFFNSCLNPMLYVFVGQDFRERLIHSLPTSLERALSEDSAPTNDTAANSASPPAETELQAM
Put plainly: FPR2 cyclic adenosine monophosphate (cAMP) assay. The following applies: CHO cells overexpressing human FPR2; forskolin 5 μM; inhibition of cAMP production; HTRF; read-out: hFPR2 cAMP2 EC50. The class given is cell-based. The essentials: (§1)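 Inhibition of forskolin-stimulated cAMP (final forskolin 5 μM for FPR2, 10 μM for FPR1; IBMX 200 μM) was measured by HTRF in recombinant CHO cells after 30 min at room temperature.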

In assay [2] the target is T2, human FPR1 (Homo sapiens, UniProt P21462).
T2 sequence (P21462 1-350): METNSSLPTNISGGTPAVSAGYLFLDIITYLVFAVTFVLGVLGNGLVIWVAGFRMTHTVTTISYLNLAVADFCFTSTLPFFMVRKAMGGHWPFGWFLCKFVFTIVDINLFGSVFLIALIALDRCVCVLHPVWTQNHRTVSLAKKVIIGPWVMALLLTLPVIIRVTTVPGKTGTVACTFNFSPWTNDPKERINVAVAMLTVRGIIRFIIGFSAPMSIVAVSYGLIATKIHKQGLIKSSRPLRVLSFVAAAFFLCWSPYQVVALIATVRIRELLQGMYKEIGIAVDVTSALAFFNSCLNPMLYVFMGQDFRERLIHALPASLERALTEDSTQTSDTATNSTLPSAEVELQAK
Put plainly: FPR1 cyclic adenosine monophosphate (cAMP) assay. The class given is cell-based. To be noted: CHO cells overexpressing human FPR1; forskolin 10 μM; inhibition of cAMP production; HTRF; read-out: hFPR1 cAMP2 EC50. In short, it runs like this: as §1

For `COc1cc(F)c(-c2c(NC(=O)c3ccc(OC(F)F)cc3)c(=O)n(-c3cc(C)cc(C)c3)n2C)c(F)c1` [Example 109, N-[5-(2,6-difluoro-4-methoxyphenyl)-2-(3,5-dimethylphenyl)-1-methyl-3-oxo-2,3-dihydro-1H-pyrazol-4-yl]-4-(difluoromethoxy)benzamide], the results for the EC50 in assay [1] and in assay [2] were 11 nM and 8.1 µM, respectively.

For `COc1cc(F)c(-c2c(NC(=O)c3ccc(OC(F)F)cc3)c(=O)n(-c3cc(Cl)cc(Cl)c3)n2C)c(F)c1` [Example 127, N-[2-(3,5-dichlorophenyl)-5-(2,6-difluoro-4-methoxyphenyl)-1-methyl-3-oxo-2,3-dihydro-1H-pyrazol-4-yl]-4-(difluoromethoxy)benzamide], the EC50 in assay [1] is 8 nM; in assay [2] it was greater than 10 µM.

On to `COc1cc(F)c(-c2c(NC(=O)c3ccc(OC(F)F)cc3)c(=O)n(-c3cc(OC)c(C)cn3)n2C)c(F)c1` [Example 77, N-[5-(2,6-difluoro-4-methoxyphenyl)-2-(4-methoxy-5-methylpyridin-2-yl)-1-methyl-3-oxo-2,3-dihydro-1H-pyrazol-4-yl]-4-(difluoromethoxy)benzamide], for which the EC50 in assay [1] worked out at 17 nM; in assay [2] it was 0.62 µM.

Consider `COc1cc(F)c(-c2c(NC(=O)c3ccc(OC(F)F)cc3)c(=O)n(-c3nc(N4CC5(CC(O)C5)C4)ccc3C(F)(F)F)n2C)c(F)c1` [Example 308, N-[5-(2,6-difluoro-4-methoxyphenyl)-2-(6-{6-hydroxy-2-azaspiro[3.3]heptan-2-yl}-3-(trifluoromethyl)pyridin-2-yl)-1-methyl-3-oxo-2,3-dihydro-1H-pyrazol-4-yl]-4-(difluoromethoxy)benzamide], for which the EC50 in assay [1] was 3 nM; in assay [2], greater than 10 µM.

Consider `COc1cc(OCC(O)C(F)(F)F)nc(-n2c(=O)c(NC(=O)c3ccc(OC(F)F)cc3)c(-c3c(F)cc(OC)cc3F)n2C)c1` (stereo not shown) [Example 383, N-(5-(2,6-Difluoro-4-methoxyphenyl)-2-(4-methoxy-6-(3,3,3-trifluoro-2-hydroxypropoxy)pyridin-2-yl)-1-methyl-3-oxo-2,3-dihydro-1H-pyrazol-4-yl)-4-(difluoromethoxy)benzamide], for which the figures for the EC50 in assay [1] and in assay [2] were 1 nM and 2.5 µM, respectively.

On to `COc1cc(F)c(-c2c(NC(=O)c3ccc(OC(F)(F)F)cc3)c(=O)n(-c3cccc(F)c3)n2C)c(F)c1` [Example 2, N-[5-(2,6-difluoro-4-methoxyphenyl)-2-(3-fluorophenyl)-1-methyl-3-oxo-2,3-dihydro-1H-pyrazol-4-yl]-4-(trifluoromethoxy)benzamide], for which the EC50 in assay [1] is 5 nM; in assay [2] it was 0.21 µM.

Regarding `COc1cc(F)c(-c2c(NC(=O)c3ccc(OC(F)F)cc3)c(=O)n(-c3nc(N(C)S(C)(=O)=O)ccc3C(F)(F)F)n2C)c(F)c1` [Example 241, N-[5-(2,6-difluoro-4-methoxyphenyl)-1-methyl-2-[6-(N-methylmethanesulfonamido)-3-(trifluoromethyl)pyridin-2-yl]-3-oxo-2,3-dihydro-1H-pyrazol-4-yl]-4-(difluoromethoxy)benzamide], the EC50 is 2 nM in assay [1] and greater than 10 µM in assay [2].

On to `COc1cc(F)cc(-n2c(=O)c(NC(=O)c3ccc(OC(F)F)cc3)c(-c3c(F)cc(OC)cc3F)n2C)c1` [Example 132, N-[5-(2,6-difluoro-4-methoxyphenyl)-2-(3-fluoro-5-methoxyphenyl)-1-methyl-3-oxo-2,3-dihydro-1H-pyrazol-4-yl]-4-(difluoromethoxy)benzamide], for which the EC50 stood at 6 nM in assay [1] and 0.083 µM in assay [2].

Turning to `COc1cc(F)c(-c2c(NC(=O)c3ccc(OC(F)F)cc3)c(=O)n(-c3cc(Cl)ccn3)n2C)c(F)c1` [Example 152, N-[2-(4-chloropyridin-2-yl)-5-(2,6-difluoro-4-methoxyphenyl)-1-methyl-3-oxo-2,3-dihydro-1H-pyrazol-4-yl]-4-(difluoromethoxy)benzamide], the EC50 is 10 nM in assay [1] and greater than 10 µM in assay [2].

With `COc1cc(OCC2(C)COC2)nc(-n2c(=O)c(NC(=O)c3ccc(OC(F)F)cc3)c(-c3c(F)cc(OC)cc3F)n2C)c1` [Example 344, N-(5-(2,6-Difluoro-4-methoxyphenyl)-2-(4-methoxy-6-((3-methyloxetan-3-yl)methoxy)pyridin-2-yl)-1-methyl-3-oxo-2,3-dihydro-1H-pyrazol-4-yl)-4-(difluoromethoxy)benzamide], the EC50 in assay [1] was 2 nM; in assay [2], 2.4 µM.

As to `COc1cc(F)c(-c2c(NC(=O)c3ccc(OC(F)(F)F)cc3)c(=O)n(-c3ncccc3C(F)(F)F)n2C)c(F)c1` [Example 154, N-[5-(2,6-difluoro-4-methoxyphenyl)-1-methyl-3-oxo-2-[3-(trifluoromethyl)pyridin-2-yl]-2,3-dihydro-1H-pyrazol-4-yl]-4-(trifluoromethoxy)benzamide], the EC50 was 4 nM in assay [1] and greater than 10 µM in assay [2].

In the case of `COc1cc(F)c(-c2c(NC(=O)c3ccc(C(F)(F)F)cc3)c(=O)n(-c3ccccc3)n2C)c(F)c1` [Example 5, N-[5-(2,6-difluoro-4-methoxyphenyl)-1-methyl-3-oxo-2-phenyl-2,3-dihydro-1H-pyrazol-4-yl]-4-(trifluoromethyl)benzamide], the values for the EC50 in assay [1] and in assay [2] were 10 nM and 2.9 µM, respectively.

On to `COc1cc(F)c(-c2c(NC(=O)c3ccc(OC(F)F)cc3)c(=O)n(-c3nc(N[C@H]4CCOC4)ccc3C(F)(F)F)n2C)c(F)c1` [Example 255], for which the EC50 in assay [1] is 2 nM; in assay [2], greater than 10 µM.

As to `COc1cc(F)c(-c2c(NC(=O)c3ccc(Cl)cc3)c(=O)n(-c3ccccc3)n2C)c(F)c1` [Example 9, 4-chloro-N-[5-(2,6-difluoro-4-methoxyphenyl)-1-methyl-3-oxo-2-phenyl-2,3-dihydro-1H-pyrazol-4-yl]benzamide], the EC50 in assay [1] was 11 nM; in assay [2], greater than 10 µM.

`COc1cc(F)c(-c2c(NC(=O)c3ccc(OC(F)F)cc3)c(=O)n(-c3cccc(N4CCOCC4)n3)n2C)c(F)c1` [Example 79, N-[5-(2,6-difluoro-4-methoxyphenyl)-1-methyl-2-[6-(morpholin-4-yl)pyridin-2-yl]-3-oxo-2,3-dihydro-1H-pyrazol-4-yl]-4-(difluoromethoxy)benzamide]: the EC50 was 10 nM in assay [1] and greater than 10 µM in assay [2].

For `COc1cc(OCC2(CO)COC2)nc(-n2c(=O)c(NC(=O)c3ccc(OC(F)F)cc3)c(-c3c(F)cc(OC)cc3F)n2C)c1` [Example 384, N-(5-(2,6-Difluoro-4-methoxyphenyl)-2-(6-((3-(hydroxymethyl)oxetan-3-yl)methoxy)-4-methoxypyridin-2-yl)-1-methyl-3-oxo-2,3-dihydro-1H-pyrazol-4-yl)-4-(difluoromethoxy)benzamide], the EC50 in assay [1] was 7 nM; in assay [2], greater than 10 µM.

Consider `COc1cc(F)c(-c2c(NC(=O)c3ccc(OC(F)F)cc3)c(=O)n(-c3ccc(OCCO)cn3)n2C)c(F)c1` [Example 388, N-(5-(2,6-Difluoro-4-methoxyphenyl)-2-(5-(2-hydroxyethoxy)pyridin-2-yl)-1-methyl-3-oxo-2,3-dihydro-1H-pyrazol-4-yl)-4-(difluoromethoxy)benzamide], for which the EC50 in assay [1] was found to be 4 nM; in assay [2] it was 3.6 µM.

For `COc1cc(F)c(-c2c(NC(=O)c3ccc(OC(F)F)cc3)c(=O)n(-c3nc(N4CCN(CC(F)(F)F)CC4)ccc3C(F)(F)F)n2C)c(F)c1` [Example 269, N-[5-(2,6-difluoro-4-methoxyphenyl)-1-methyl-3-oxo-2-{6-[4-(2,2,2-trifluoroethyl)piperazin-1-yl]-3-(trifluoromethyl)pyridin-2-yl}-2,3-dihydro-1H-pyrazol-4-yl]-4-(difluoromethoxy)benzamide], the EC50 worked out at 3 nM in assay [1] and 3.3 µM in assay [2].

As for `COc1cc(F)c(-c2c(NC(=O)c3ccc(OC(F)F)cc3)c(=O)n(-c3cccc(C4CC4)n3)n2C)c(F)c1` [Example 45, N-[2-(6-cyclopropylpyridin-2-yl)-5-(2,6-difluoro-4-methoxyphenyl)-1-methyl-3-oxo-2,3-dihydro-1H-pyrazol-4-yl]-4-(difluoromethoxy)benzamide], the EC50 in assay [1] was found to be 6 nM; in assay [2], 2.8 µM.

In the case of `COc1cc(F)c(-c2c(NC(=O)c3ccc(OC(F)F)cc3)c(=O)n(-c3nc(C(F)(F)F)ccc3OCC3CCOC3)n2C)c(F)c1` (stereo not shown) [Example 370, N-(5-(2,6-Difluoro-4-methoxyphenyl)-1-methyl-3-oxo-2-(3-((tetrahydrofuran-3-yl)methoxy)-6-(trifluoromethyl)pyridin-2-yl)-2,3-dihydro-1H-pyrazol-4-yl)-4-(difluoromethoxy)benzamide], the EC50 in assay [1] is 5 nM; in assay [2], greater than 10 µM.
